# Data as given in patent publication US7608577B2, “Peptidyl ketones as inhibitors of DPIV” (OSI Pharmaceuticals, Inc., priority 2001, dated 2009).
# Structures can show the parent of a compound that is named as a salt. Where two headings read alike, the source gives them in different places.
# Tests used:
# [1] = target: porcine DPIV (Sus scrofa, UniProt P22411); test: Determination of IC50 values against DPIV; type: biochemical; conditions: Gly-Pro-pNA 0.4 mM, APN, 30° C.
# Method: 100 μl inhibitor stock solution was mixed with 100 μl buffer (HEPES pH7.6) and 20 μl diluted porcine DPIV and preincubated at 30° C. Reaction was started by addition of a mixture of 50 μl substrate (Gly-Pro-pNA, final concentration 0.4 mM) and 2 μl APN stock solution. Formation of the product pNA was measured at 405 nm and 30° C. over 10 min using the HTS 7000Plus plate reader (Perkin Elmer) and slopes were calculated. The final inhibitor concentrations ranged between 1 mM and 30 nM. For calculation of IC50 GraFit 4.0.13 (Erithacus Software) was used.
# [2] = target: T1, dipeptidyl peptidase IV from porcine kidney (Sus scrofa, UniProt P22411); test: Ki determination, DPIV inhibition (inhibitor released from prodrug by APN); type: biochemical; conditions: for Ki: porcine kidney DPIV, substrate Gly-Pro-pNA, APN added to release inhibitor, HEPES pH7.6; for T1/2 (half-life, from enzyme activity versus reaction time): same assay as Ki, unstable competitive inhibitor
# T1 construct: dipeptidyl peptidase IV from porcine kidney with a specific activity against glycylprolyl-4-nitroaniline of 37.5 U/mg; from tissue; host or cells: porcine kidney
# T1 sequence (P22411 whole entry): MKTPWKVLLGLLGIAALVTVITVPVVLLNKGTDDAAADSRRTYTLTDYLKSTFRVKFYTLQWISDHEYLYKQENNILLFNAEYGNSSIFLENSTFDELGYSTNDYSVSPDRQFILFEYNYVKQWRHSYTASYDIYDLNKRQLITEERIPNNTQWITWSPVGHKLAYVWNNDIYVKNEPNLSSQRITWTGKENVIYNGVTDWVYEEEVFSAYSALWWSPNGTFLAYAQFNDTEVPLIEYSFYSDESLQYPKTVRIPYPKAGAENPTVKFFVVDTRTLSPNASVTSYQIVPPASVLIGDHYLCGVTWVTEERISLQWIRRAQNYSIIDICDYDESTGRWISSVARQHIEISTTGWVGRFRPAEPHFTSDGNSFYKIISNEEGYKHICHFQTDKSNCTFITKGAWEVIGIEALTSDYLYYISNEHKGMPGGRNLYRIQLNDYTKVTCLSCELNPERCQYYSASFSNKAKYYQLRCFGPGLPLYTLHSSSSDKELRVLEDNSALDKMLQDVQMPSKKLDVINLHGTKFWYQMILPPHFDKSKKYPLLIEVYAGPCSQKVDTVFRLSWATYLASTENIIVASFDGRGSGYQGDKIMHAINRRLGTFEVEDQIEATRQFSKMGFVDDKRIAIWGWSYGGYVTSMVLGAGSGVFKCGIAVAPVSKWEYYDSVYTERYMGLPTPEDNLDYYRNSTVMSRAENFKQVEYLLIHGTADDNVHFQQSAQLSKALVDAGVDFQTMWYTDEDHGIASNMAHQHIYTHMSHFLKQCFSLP
# Method: 500 μl test compound in a concentration range of 1*10^−5 M-1*10^−11M were admixed with and 500 μl HEPES buffer (40 mM, pH7.6; ion strength=0.125) and 20 μl of diluted DPIV. Release of the inhibitor from the prodrug as well the monitoring reaction (DPIV-catalyzed hydrolysis of Gly-Pro-pNA) were started by addition of a mixture of 10 μl of APN stock solution (4.9 mg/ml, Sigma, Taufkirchen, Germany) with 250 μl of the substrate (Gly-Pro-pNA, 0.05-4 mM). Development of yellow color due to 4-nitroaniline release were monitored at λ=405 nm for up to 180 min using UV1 Spectrometer (ThermoSpectronic).
# The Ki-values were calculated by fitting the first derivative of the time-progress curves using Graphit (v.4.0.13, Erithacus Software, Ltd, UK) and an equation for an unstable competitive inhibitor.
# The half-life (t1/2) was calculated by plotting the enzyme activity versus reaction time.
# [3] = system: Wistar rats; test: Glucose tolerance (OGTT) in Wistar rats under identical experimental conditions; type: in vivo; conditions: 100 mg/kg b.w. oral
# Sequence of porcine DPIV (P22411 whole entry): as above
SMILES,"IC50 ([1]; HEPES pH7.6, read-out: IC50) [µM]",Ki ([2]; read-out: Ki) [µM],"T1/2 (half-life, from enzyme activity versus reaction time) [2] [min]",also measured
"CC(C)[C@H](NC(=O)[C@H](C)N)C(=O)N1CCC[C@H]1C(=O)CSCc1c(Cl)cccc1Cl [2-{[(2,6-Dichlorobenzyl)thiomethyl]carbonyl}-1-N-[{(L)-Alanyl}-(L)-Valinyl]-(2S)-pyrrolidine]",79.7,< 0.1,,
"CC(C)[C@H](NC(=O)[C@H](C)N)C(=O)N1CCC[C@H]1C(=O)c1ccccn1 [H-Ala Val-Pro-CO-(2-Pyridinyl)*TFA, 2-[(Pyridin-2-yl)carbonyl]-1-N-[{(L)-Alanyl}-(L)-Valinyl]-(2S)-pyrrolidine trifluoroacetate]",1100,,,
"C[C@H](N)C(=O)NCC(=O)N1CCC[C@H]1C(=O)c1nc2ccccc2s1.O=C(O)C(F)(F)F [H-Ala-Gly-Pro-CO-Benzothiazole*TFA, 2-[(Benzothiazol-2-yl)carbonyl]-1-N-[{(L)-Alanyl}-Glycyl]-(2S)-pyrrolidine trifluoroacetate]",,0.107,5.1,
"CC(C)[C@H](NC(=O)[C@H](C)N)C(=O)N1CCC[C@H]1C(=O)c1nc2ccccc2s1.O=C(O)C(F)(F)F [H-Ala-Val-Pro-CO-Benzothiazole*TFA, 2-[(Benzothiazol-2-yl)carbonyl]-1-N-[{(L)-Alanyl}-(L)-Valinyl]-(2S)-pyrrolidine trifluoroacetate]",,0.0373,17.0,
"CC(C)[C@H](NC(=O)[C@H](C)N)C(=O)N1CCC[C@H]1C(=O)c1nccs1.O=C(O)C(F)(F)F [H-Ala-Val-Pro-CO-Thiazole*TFA, 2-[([1,3]-Thiazol-2-yl)carbonyl]-1-N-[{(L)-Alanyl}-(L)-Valinyl]-(2S)-pyrrolidine trifluoroacetate]",,0.0332,15.1,IC50 ([1]; HEPES pH7.6): no inhibition
"Br.CC(C)[C@H](NC(=O)CN)C(=O)N1CCC[C@H]1C(=O)COC(=O)c1ccccc1 [H-Gly-Val-Pro-CO—CH2O—CO—Ph*HBr, 2-[(Benzoyloxy-methyl)carbonyl]-1-N-[Glycyl-(L)-Valinyl]-(2S)-pyrrolidine hydrobromide]",4.94,,,Ki [2]: no inhibition
"Br.CC(=O)[C@@H]1CCCN1C(=O)[C@@H](NC(=O)[C@@H]1CCCN1C(=O)[C@@H](N)C(C)C)C(C)C [H-Val-Pro-Val-Pro-Me*HBr, 2-Methylcarbonyl-1-N-[(L)-Valinyl-(L)-Prolyl-(L)-Valinyl]-(2S)-pyrrolidine hydrobromide]",,,,AUC test compound [3]: 66.4 mmol·min/L; Improvement ([3]; vs AUC control): 44.1%
